Experimental data published in patent US6001880A, “Alkylenediamine derivative, anti-ulcer drug, and antibacterial drug” (Shiseido Co., Ltd., priority 1997, dated 1999).

System: stress ulcer formation in rats
Assay: WIS: Restraint and Water Immersion Stress-Induced Ulcer Inhibition Test
Type: in vivo, rat (male Crj:SD or Slc:SD)
Conditions: 100 mg/kg oral, 10 minutes before 7 h restraint and water immersion (21° C.)
Method: WIS: Restraint and Water Immersion Stress-Induced Ulcer Inhibition Test
The degree of inhibition of the stress ulcer formation is tested.
Male Crj:SD or Slc:SD rats (6 to 7-week-old) were fasted overnight, but allowed free access to water. Each group has 5 to 8 of these rats. The sample compound was dissolved or suspended in an aqueous solution of 0.3% sodium carboxymethylcellulose or 0.05% Tween 80 and then was orally administered (100 mg/10 ml/kg). To a control group, the vehicle was administered. 10 minutes later, the rats were placed in a stress cage and immersed to the level of xipfoid process in a water bath (21° C.) for 7 hours. At the end of the stress, the rats were sacrificed by inhalation of ether or carbon dioxide. Then, the stomach of each was removed, inflated by injecting 10 ml of 5% formalin neutral buffer solution, and immersed in 1% formalin neutral buffer solution for 30 minutes or more to be fixed. The stomach was incised along the greater curvature and then the length of each erosion in the glandular portion was determined under dissecting microscope. The sum of the length of erosions per stomach was defined as ulcer index (UI).
The effect obtained when 100 mg/kg of the sample compound had been administered was expressed as ulcer formation inhibitory rate (%) as follows:
ulcer formation inhibitory rate (%)=(1-(UI in sample group/UI in control
For CCN(CC)CCNC(=O)c1ccc(OCC=C(C)C)c(OCC=C(C)C)c1 [Example 22], the “WIS: ulcer formation inhibitory rate” value was 81%.
In the case of CCN(CC)CCNC(=O)c1ccc(CC(C)C)c(O)c1 [Example 56], the “WIS: ulcer formation inhibitory rate” value is reported as 69%.
With CC(C)=CCC/C(C)=C/COc1ccccc1C(=O)NCCN(C)C [Example 13] the “WIS: ulcer formation inhibitory rate” value was 75%.
With CCN(CC)CCNC(=O)c1cc(OC)ccc1OC/C=C(\C)CCC=C(C)C [Example 33] the “WIS: ulcer formation inhibitory rate” value was 67%.
With CCN(CC)CCNC(=O)c1ccc(OC/C=C(/C)CCC=C(C)C)cc1 [Example 5] the “WIS: ulcer formation inhibitory rate” value was 90%.
In the case of CCN(CC)CCNC(=O)c1ccc(OCC=C(C)C)cc1 [Example 3], the “WIS: ulcer formation inhibitory rate” value is reported as 88%.
In the case of CCCCCc1ccc(C(=O)NCCN(C(C)C)C(C)C)cc1 [Example 62], the “WIS: ulcer formation inhibitory rate” value is reported as 72%.
In the case of CC(C)Cc1cc(C(=O)NCCN(C(C)C)C(C)C)ccc1OCc1ccc(F)cc1 [Example 57], the “WIS: ulcer formation inhibitory rate” value is reported as 45%.
With CCN(CC)CCNC(=O)c1cccc(OC)c1OC/C=C(\C)CCC=C(C)C [Example 31] the “WIS: ulcer formation inhibitory rate” value was 73%.
With CCC(C)N(CCNC(=O)c1ccc(OC/C=C(\C)CCC=C(C)C)cc1)C(C)CC (stereo not drawn) [Example 8] the “WIS: ulcer formation inhibitory rate” value was 58%.

System: not listed separately
Assay: MTT: Cell Damaging and Protecting Effect Test
Type: cell-based, rabbit (male Japanese White)
Conditions: rabbit, gastric corpus mucosa cells, final concentration 10^-4 M, smaller value is better, read-out: MTT: cell damaging rate
Excerpt: MTT: Cell Damaging and Protecting Effect Test
It is confirmed that there is no toxicity in cell level. Those having a toxicity in cell level are inappropriate as an anti-ulcer drug.
A male Japanese White rabbit (2.5 to 3 kg) was anesthetized to death by Nembutal™ and, immediately thereafter, its stomach was removed. The greater curvature of the stomach was incised so as to remove the stomach contents therefrom. After the mucosal surface was washed with HBSS (Hanks' Balanced Salt Solution), the stomach in ice-cooled HBSS was transferred to a laboratory. Then, after the pyloric antrum was removed, the gastric corpus mucosa was separated by a spatula and then minced into 2 to 3 mm^3 pieces in BME (Basal Medium Eagle). Thereafter, these pieces were shaken at 120 to 130 cycles/minute for 15 minutes at 37° C. in BME 60 ml containing 280 U/ml of dispase and 30 to 50 U/ml of collagenase. Here, the concentration of collagenase was appropriately changed for each lot in view of the state of cells. The pieces were washed twice with EBSS (Earle's Balanced Salt Solution) containing 1 mM of EDTA and then shaken in MEM (Minimum Essential Medium) containing 1 mM of EDTA at 37° C. for 5 minutes. Subsequently, they were shaken in the dispase and collagenase having the same concentrations as those mentioned above for 15 minutes so as to remove the supernatant and then further shaken at 37° C. for 50 to 60 minutes at 120 to 130 cycles/minute. Then, after being washed twice with HBSS, Ham F12 containing 2% of Ultrocer G™ was used to attain the concentration of 1×10^6 cells/ml. Thus formed suspension was dispensed in each well of a 96-well plate by 200 μl. The plate was incubated in the atmosphere composed of 5% CO2 and 95% air at 37° C. for three days so as to attain a confluent state and then subjected to MTT assay.
The sample compound was dissolved in DMSO so as to attain a concentration of 10^-2 M and then diluted with HBSS containing 2% of Ultrocer G™ so as to attain a final concentration of 10^-4 M. To each group, which 8 wells were used for, 10 μl of MTT reagent was added immediately after 100 μl of the medium in each well was exchanged for same volume of the resulting solution of the sample compound. After being incubated in an atmosphere composed of 5% CO2 and 95% air at 37° C. for 4 hours, thus formed solution was centrifuged and then its supernatant was discarded. Subsequently, 100 μl of 100% ethanol was added to the residue so as to dissolve MTT formazan. Then, the absorbance (OD: 570 to 630) was measured by a microplate reader. This method utilizes a phenomenon in which MTT is changed to MTT formazan only by mitochondria of living cells so as to change color.
The cell damaging or cell protecting effect of the sample compound at the final concentration of 10^-4 M was expressed as cell damaging rate (%) as follows:
cell damaging rate (%)=(1-(absorbance in sample group/absorbance in control
Accordingly, the smaller value is better in the cell damaging rate.
With CCN(CC)CCNC(=O)c1ccc(OCC=C(C)C)c(OCC=C(C)C)c1 [Example 22] the cytotoxicity at 4 h, 100 µM was 16%.
Work on CCN(CC)CCNC(=O)c1ccc(CC(C)C)c(O)c1 [Example 56] yielded a cytotoxicity at 4 h, 100 µM of 11%.
Molecule CC(C)=CCC/C(C)=C/COc1ccccc1C(=O)NCCN(C)C [Example 13] has a cytotoxicity at 4 h, 100 µM of 19%.
CCN(CC)CCNC(=O)c1cc(OC)ccc1OC/C=C(\C)CCC=C(C)C [Example 33] showed a cytotoxicity at 4 h, 100 µM of 26%.
Molecule CCN(CC)CCNC(=O)c1ccc(OC/C=C(/C)CCC=C(C)C)cc1 [Example 5] has a cytotoxicity at 4 h, 100 µM of 30%.
In the case of CCN(CC)CCNC(=O)c1ccc(OCC=C(C)C)cc1 [Example 3], the cytotoxicity at 4 h, 100 µM is reported as 1%.
CCCCCc1ccc(C(=O)NCCN(C(C)C)C(C)C)cc1 [Example 62] gave a cytotoxicity at 4 h, 100 µM of 40%.
CC(C)Cc1cc(C(=O)NCCN(C(C)C)C(C)C)ccc1OCc1ccc(F)cc1 [Example 57] showed a cytotoxicity at 4 h, 100 µM of 43%.
Molecule CCN(CC)CCNC(=O)c1cccc(OC)c1OC/C=C(\C)CCC=C(C)C [Example 31] has a cytotoxicity at 4 h, 100 µM of 17%.
CCC(C)N(CCNC(=O)c1ccc(OC/C=C(\C)CCC=C(C)C)cc1)C(C)CC (stereo not drawn) [Example 8] showed a cytotoxicity at 4 h, 100 µM of 38%.

System: isolated gastric fundic gland
Assay: CAP: Acid Secretion Inhibition Test In Vitro ([14C]-aminopyrine uptake)
Type: cell-based, rabbit (male Japanese White)
Conditions: Oryctolagus cuniculus; final concentration 10^-5 M; histamine 10^-5 M stimulation; read-out: CAP: acid secretion inhibitory rate
Method: CAP: Acid Secretion Inhibition Test In Vitro
The acid secretion inhibitory activity in a cell level is studied. It can also be used for studying the mechanism of the effect.
First, an isolated gastric fundic gland sample was prepared. Namely, a male Japanese White rabbit (2.5 to 3 kg) was anesthetized to death with Nembutal™ and then the abdomen was incised. Immediately thereafter, the stomach was removed and, after its pyloric and cardiac antrum were severed, incised along its greater curvature into two sheets. The gastric contents adhering to the mucosal surface was washed out with ice-cooled PBS (-) and then carefully washed therein. The gastric wall was spread on a cork board with its mucosal surface facing up and the feed and mucus thereon were completely removed with sterile gauze. The mucosa was separated therefrom by a spatula and then collected in ice-cooled PBS (-). After being washed twice with PBS (-), the mucosa was minced into 2-3 mm^3 pieces by scissors. These pieces were further washed twice with a nutrient solution. The nutrient solution comprises 132.4 mM of NaCl, 5.4 mM of KCl, 5 mM of Na2 HPO4. 12H2 O, 1 mM of NaH2 PO4.2H2 O, 1.2 mM of MgSO4, 1 mM of CaCl2, 25 mM of HEPES, 2 mg/ml of glucose, and 1 mg/ml of BSA.
Into 70 ml of the nutrient solution containing 1 mg/ml of collagenase, minced mucosal pieces were dispersed and intensely stirred in a conical flask with a stirrer at 37° C. for 40 to 60 minutes. During this period, 100% O2 was sprayed on the nutrient solution surface and the pH was appropriately measured such that it was immediately adjusted to pH 7.4, when the value was therebelow, with a base. The nutrient solution was added to the reaction solution so as to attain the total amount of about 200 ml. After being filtered through a mesh, the suspension was divisionally introduced into 50 ml centrifuge tubes and left for 15 minutes such that gastric fundic gland was deposited. The supernatant was repeatedly removed by an aspirator, dispersed in the nutrient solution, and then left such that the gastric fundic gland was washed three times. At this time, without using a pipette, the suspension was alternately introduced into two centrifuge tubes so as to effect dispersion. The number of cells was counted under microscope and adjusted to 1.6×10^6 cells/ml.
Then, [^14 C]-aminopyrine uptake test was performed. After an Eppendorf tube was weighed, 10 μl (final concentration: 10^-5 M) of histamine dissolved in the above-mentioned nutrient solution, 10 μl (final concentration: […]) of the test compound dissolved in DMSO, and 10 μl (final concentration: 0.05 μCi/ml) of [^14 C]-aminopyrine diluted with the nutrient solution were introduced therein and then 970 μl of the isolated gastric fundic gland suspension prepared above was added thereto. Subsequently, this mixture was shaken at 37° C. for 40 minutes at 125 cycles/minute. After being centrifuged for 30 seconds, 200 μl of its supernatant was collected into a mini-vial, while the rest was removed by an aspirator. The gland pellet was completely dried as the tube with its lid being opened was kept for one night in a drying oven at 80° C. and then the lid was closed and the weight was determined at room temperature. Then 100 μl of 1N KOH was added thereto and the tube with its lid being closed was treated at 60° C. for 1 to 2 hours so as to dissolve the pellet. Then, the contents thereof were transferred to a mini-vial. Into the mini-vial containing the supernatant or gland pellet, 4 ml of Atomlite™ was added and then the radioactivity was measured by a liquid scintillation counter. Here, after the radioactivity of the gland pellet was corrected by using a sample in which 20 mM of NaSCN was added so as to cancel the hydrogen ion concentration gradient, the integration ratio of aminopyrine specifically trapped by the gland pellet was calculated. This experiment was performed in duplicate.
Here, its principle will be briefly explained. […]
In the case of CCN(CC)CCNC(=O)c1ccc(OCC=C(C)C)c(OCC=C(C)C)c1 [Example 22], the inhibition at 10 µM is reported as 99.8%.
CCN(CC)CCNC(=O)c1ccc(CC(C)C)c(O)c1 [Example 56] showed an inhibition at 10 µM of 53.4%.
In the case of CC(C)=CCC/C(C)=C/COc1ccccc1C(=O)NCCN(C)C [Example 13], the inhibition at 10 µM is reported as 96.6%.
CCN(CC)CCNC(=O)c1cc(OC)ccc1OC/C=C(\C)CCC=C(C)C [Example 33] showed an inhibition at 10 µM of 100%.
With CCN(CC)CCNC(=O)c1ccc(OC/C=C(/C)CCC=C(C)C)cc1 [Example 5] the inhibition at 10 µM was 109%.
For CCN(CC)CCNC(=O)c1ccc(OCC=C(C)C)cc1 [Example 3], the inhibition at 10 µM was 70.8%.
In the case of CCCCCc1ccc(C(=O)NCCN(C(C)C)C(C)C)cc1 [Example 62], the inhibition at 10 µM is reported as 101%.
Work on CC(C)Cc1cc(C(=O)NCCN(C(C)C)C(C)C)ccc1OCc1ccc(F)cc1 [Example 57] yielded an inhibition at 10 µM of 100%.
In the case of CCN(CC)CCNC(=O)c1cccc(OC)c1OC/C=C(\C)CCC=C(C)C [Example 31], the inhibition at 10 µM is reported as 100%.
For CCC(C)N(CCNC(=O)c1ccc(OC/C=C(\C)CCC=C(C)C)cc1)C(C)CC (stereo not drawn) [Example 8], the inhibition at 10 µM was 99.9%.
